Assays:
[1] = system: metrazol induced convulsions; assay: Antimetrazol activity in mice; type: in vivo; conditions: IP, 50% hpbcd, 10 mg/kg, 10 min before metrazol 85 mg/kg
Procedure: Experiments were also performed to determine the physiological relevance of neuroactive steroid and GABA receptor interactions by assessing the ability of compounds of the present invention to prevent metrazol induced convulsions in mice. Mice were injected with various doses of the test compounds of the invention, 10 minutes prior to the injection of metrazol. The time to onset of myoclonus (presence of forelimb clonic activity) induced by metrazol was determined by observing each mouse for a period of 30 minutes. In control mice, metrazol (85 mg/kg) will induce convulsion in 95% of the animals.
The anticonvulsant tests are similar to that described above.

[2] = molecular target: GABA receptor complex (GRC); assay: [35S]TBPS binding in rat cerebral cortex P2 homogenate; conditions: for IC50: concentration to inhibit 50% of control [35S]TBPS binding, 2 nM [35S]TBPS; for IMAX (maximum inhibition): maximum inhibition of [35S]TBPS binding
Outline: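 Male Sprague-Dawley rat cortical P2 homogenate (0.5 mg protein) incubated with 2 nM [35S]TBPS in 50 mM Na/K phosphate pH 7.4, 200 mM NaCl, with GABA plus (+)bicuculline, 90 min at 25 °C. Filter-bound radioactivity counted; non-specific binding with […]; IC50 and maximal inhibition by nonlinear regression.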

[3] = system: time spent on the open-arms; assay: Elevated plus-maze test; type: in vivo, N.I.H. Swiss-Webster mice; conditions: IP, 50% hpbcd, 10 mg/kg
From the text: The theoretical basis for the elevated plus-maze test is similar to that of the fight/dark transition test. As it was described previously by Pellow et al. J. Neurosci. Meth. 14:149-167 (1985)), the elevated plus-maze apparatus is designed to utilize the mice's natural aversion to open spaces. The apparatus consists of two open-arms and two enclosed-arms. The elevated plus-maze test allows for two measures of anxiety, the number of entries into the open-arms and the time spent on the open-arms, both expressed as a percentage of the total number of entries and time spent in/on both the open-arms and enclosed-arms.
Male N.I.H Swiss-Webster mice (Harlan, Indianapolis, Ind.) weighing 15-20 g were housed four per cage in polyethylene cages with sawdust bedding. The colony room was environmentally controlled (22° C.) with a 12 hr light/dark cycle (0600-1800 hr). Food and water were available ad libitum, except during testing. The experiments were run from 0700-1500 hr and groups were counterbalanced for time of day effects. Mice were only administered drug or vehicle once.
The method used was previously described (Lister, Psychopharmacol. 92:180-185 (1987)). The apparatus included two open arms perpendicular to two enclosed arms elevated 50 cm from the floor. Each arm was 50 cm long and the walls of the enclosed arms were 40 cm tall. The maze was made completely of black plexiglass. Incandescent 200 W light bulbs were above each of the open arms to produce a strong contrast between the open arms and the enclosed arms.
[…] Swiss-Webster mice were placed in the center of the plus-maze facing an open arm. During the 5 min test period, the number of entries onto the open arms and the enclosed arms, and the time spent in the open arms and enclosed arms were measured. All four paws had to be within an arm for the dependent variable to be measured. Therefore, the time spent in the center of the maze is not counted, so the total time spent in the open arms and the enclosed arms may not equal 5 min.

loss-of-righting reflex = assay: Anesthetic activity, loss-of-righting reflex; type: in vivo, mice; conditions: iv
Procedure: The compounds of and used in the invention can also be used for anesthetic indications at high doses. However, the preferred route of administration to induce anesthesia is intravenous (i.v.) administration. In animals, a drug's anesthetic properties is measured by the drug's ability to produce a loss-of-righting reflex. The loss-of-righting reflex is defined as the inability of an animal to right itself within 30 seconds when placed on its back. Mice were administered drug i.v. in the lateral tail vein. Following administration, mice were placed on their backs and observed for loss-of-righting reflex.

Progesterone Receptors = assay: Inhibition of 3H-Progesterone Binding to the Bovine Uteral Progesterone Receptors; conditions: competitor 10^−6M; 3H-progesterone 0.15 nM

Compound	melting point [°C]	% Protected [1] [%]	IC50 [2] [nM]	IMAX (maximum inhibition) [2] [%]	Plus-Maze (% Control), time spent on the open-arms [3] [% Control]	Loss-of-Righting Reflex (%) (loss-of-righting reflex; 50% hpbcd, 10 mg/kg)	% of Inhibition (Progesterone Receptors) [%]	Loss-of-Righting Reflex (%) (loss-of-righting reflex; 10% hpbcd, 20 mg/kg)
COC1CCC2C3CCC4CC(O)(C#Cc5ccc(C(C)=O)cc5)CCC4(C)C3CCC12C (stereo not drawn) [3β-(4′-acetylphenylethynyl)-3α-hydroxy-17β-methoxy-5β-androstane]	189 to 191	25	20	104	129			
C=C(C)C#CC1(O)CCC2(C)C(CCC3C2CCC2(C)C(OC)CCC32)C1 (stereo not drawn) [3α-Hydroxy-17β-methoxy-3β-(3′-methylbut-3′-en-1′-ynyl)-5β-androstane]		87.5				100		
C[C@]12CC[C@@H](O)C[C@H]1CC[C@@H]1[C@@H]2CC[C@]2(C)[C@@H](C(=O)CSCCO)CC[C@@H]12 [3α-hydroxy-21-hydroxyethylthio-5β-pregnan-20-one]	150 to 152	12.5	141	71				
CCC(=O)[C@@]1(C)CC[C@H]2[C@@H]3CCC4=CC(=O)CCC4=C3CC[C@@]21C [Example R5020]							100	
CC(=O)[C@H]1CC[C@H]2[C@@H]3CC[C@H]4C[C@H](O)CC[C@]4(C)[C@H]3C(=O)C[C@]12C [3α-Hydroxy-5α-pregnan-11,20-dione, reference compound]						37.5		
COC1CCC2C3CCC4CC(O)(C(F)(F)F)CCC4(C)C3CCC12C (stereo not drawn) [3α-Hydroxy-17β-methoxy-3β-trifluoromethyl-5β-androstane] [3β-trifluoromethyl-3α-hydroxy-17β-methoxy-5β-androstane]	122 to 127	37.5	216	103	115			37.5
CC(=O)[C@H]1CC[C@H]2[C@@H]3CC[C@H]4C[C@H](O)CC[C@]4(C)[C@H]3CC[C@]12C [3α-Hydroxy-5α-pregnan-20-one, reference compound]			37	95			14	
C[C@]12CC[C@@H](O)C[C@@H]1CC[C@@H]1[C@@H]2CC[C@]2(C)[C@@H](C(=O)CO)CC[C@@H]12 [3α,21-Dihydroxy-5α-pregnan-20-one, reference compound]			76	100			13	
C[C@]12CC[C@@H](O)C[C@@H]1CC[C@@H]1[C@@H]2CC[C@]2(C)[C@@H](C(=O)CSc3ccncc3)CC[C@@H]12 [3α-hydroxy-21-(pyrid-4-ylthio)-5α-pregnan-20-one]	154 to 156	62.5	23	98	148			
CC(=O)[C@H]1CC[C@H]2[C@@H]3CC[C@@H]4C[C@H](O)CC[C@]4(C)[C@H]3CC[C@]12C [5β-pregnan-3α-of-20-one, 5β-pregnan-3α-ol-20 -one]							9	
C#CC1(O)CCC2C(CCC3C2CCC2(C)C(OC)CCC32)C1 (stereo not drawn) [3β-Ethynyl-3α-hydroxy-17β-methoxy-19-nor-5β-androstane]	152 to 154		56	107	158	100		
COC1CCC2C3CCC4CC(O)(C(F)(F)F)CCC4C3CCC12C (stereo not drawn) [3α-Hydroxy-17β-methoxy-3β-trifluoromethyl-19-nor-5β-androstane]	40 to 42		93	115	107	62.5		
